Several values for one entry are separate records, joined by “and”; a condition that tells them apart may be missing. Equal values may be shown once.
Test: In vitro metabolic blocking of HCV NS3/4a protease inhibitors by compound of formula (II) in human liver microsomes
Assay type: in vitro ADME
Details: for % Detected Compound, Incubation time: 30′, Compound of formula (II) / % Detected Compound, Incubation time: 120′, Compound of formula (II): 3 μM test compound + 10 μM compound of formula (II); for % Detected Compound, Incubation time: 30′, Compound of formula (II) / % Detected Compound, Incubation time: 120′, Compound of formula (II) / % Detected Compound, Incubation time: 30′, No Booster / % Detected Compound, Incubation time: 120′, No Booster: human liver microsomes 1 mg/ml, 37° C., % of initial concentration; for % Detected Compound, Incubation time: 30′, Compound of formula (II) / % Detected Compound, Incubation time: 30′, No Booster: 30 min; for % Detected Compound, Incubation time: 120′, Compound of formula (II) / % Detected Compound, Incubation time: 120′, No Booster: 120 min; for % Detected Compound, Incubation time: 30′, No Booster / % Detected Compound, Incubation time: 120′, No Booster: 3 μM test compound
Experimental: Different HCV NS3/4a protease inhibitors were tested in a metabolic blocking experiment using 3 μM test compound together with 10 μM of compound of formula (II) acting as a cytochrome P450 inhibitor (or booster).
Test compounds and compound of formula (II) were added to human liver microsomes (protein concentration 1 mg/ml) suspended in potassium phosphate buffer (pH=7.4), to get final reaction mixture concentrations of 3 μM test compound and 10 μM of compound of formula (II). In the non-boosted parallel reactions, compound of formula (II) was not added. Boiled human liver microsomes were used for blank experiments. After addition (in a 1:3 ratio) of a cofactor mixture consisting of β-nicotinamide adenine dinucleotide phosphate (β-NADP, 0.5 mg/ml, 653.2 μM), D-Glucose-6-phosphate (2 mg/ml, 7.1 mM), Glucose-6-phosphate dehydrogenase (1.5 U/ml) in 2% NaHCO3, the reaction mixture was incubated at 37° C. for 30 or 120 minutes after which the reaction was stopped by increasing the temperature to 95° C. Test compound concentrations were determined using HPLC-MS.
Values are percentages of test compound detected after the indicated incubation times as compared to the initial test compound concentration. In Table 3, each value is the mean of the results of two independent experiments. In Table 4, each value is the result of an independent experiment.

[1] = mean of two independent experiments
[2] = each value one independent experiment

SMILES | % Detected Compound, Incubation time: 30′, Compound of formula (II) [1] | % Detected Compound, Incubation time: 120′, Compound of formula (II) [1] | % Detected Compound, Incubation time: 30′, No Booster [1] | % Detected Compound, Incubation time: 120′, No Booster [1] | % Detected Compound, Incubation time: 30′, Compound of formula (II) [2] | % Detected Compound, Incubation time: 120′, Compound of formula (II) [2] | % Detected Compound, Incubation time: 30′, No Booster [2] | % Detected Compound, Incubation time: 120′, No Booster [2] | blocking of test compound metabolisation (10 μM compound of formula (II) added to 3 μM test compound, human liver microsomes)
COc1ccc2c(O[C@@H]3C[C@H]4C(=O)N[C@]5(C(=O)NS(=O)(=O)C6CC6)C[C@H]5/C=C\CCCCCNC(=O)N4C3)cc(-c3nc(C(C)C)cs3)nc2c1 [Compound 18] | 131% | 196% | 42% | 0% |  |  |  |  | 
COc1ccc2c(O[C@@H]3C[C@H]4C(=O)N[C@]5(C(=O)NS(=O)(=O)C6CC6)C[C@H]5/C=C\CCCCN(C)C(=O)[C@@H]4C3)cc(-c3nc(C(C)C)cs3)nc2c1 [Compound 7] | 166% | 160% | 141% | 48% |  |  |  |  | 
COc1ccc2c(O[C@@H]3C[C@H]4C(=O)N[C@]5(C(=O)NS(=O)(=O)C6CC6)C[C@H]5/C=C\CCCCN(C)C(=O)[C@@H]4C3)cc(-c3nc(C(C)C)cs3)nc2c1C [Compound 13] |  |  |  |  | 43% and 83% | 51% and 95% | 90% and 87% | 89% and 82% | 

The next lines start with the values.

% Detected Compound, Incubation time: 30′, Compound of formula (II) [1] | % Detected Compound, Incubation time: 120′, Compound of formula (II) [1] | % Detected Compound, Incubation time: 30′, No Booster [1] | % Detected Compound, Incubation time: 120′, No Booster [1] | % Detected Compound, Incubation time: 30′, Compound of formula (II) [2] | % Detected Compound, Incubation time: 120′, Compound of formula (II) [2] | % Detected Compound, Incubation time: 30′, No Booster [2] | % Detected Compound, Incubation time: 120′, No Booster [2] | blocking of test compound metabolisation (10 μM compound of formula (II) added to 3 μM test compound, human liver microsomes) | SMILES
163% | 128% | 129% | 76% |  |  |  |  |  | COc1ccc2c(O[C@@H]3C[C@H]4C(=O)N[C@]5(C(=O)O)C[C@H]5/C=C\CCCCC[C@H](NC(=O)OC5CCCC5)C(=O)N4C3)cc(-c3csc(NC(C)C)n3)nc2c1 [BILN-2061, reference compound]
151% | 135% | 109% | 25% |  |  |  |  |  | COc1ccc2c(O[C@@H]3C[C@H]4C(=O)N[C@]5(C(=O)NS(=O)(=O)C6CC6)C[C@H]5/C=C\CCCCN(C)C(=O)N4C3)cc(-c3nc(C(C)C)cs3)nc2c1 [Compound 21]
128% | 101% | 16% | 0% |  |  |  |  |  | COc1ccc2c(O[C@@H]3C[C@H]4C(=O)N[C@]5(C(=O)NS(=O)(=O)C6CC6)C[C@H]5/C=C\CCCCCCC(=O)N4C3)cc(-c3nc(C(C)C)cs3)nc2c1 [Compound 26]
 |  |  |  |  |  |  |  | almost complete blocking | CC(C)CN(C[C@H](O)[C@@H](Cc1ccccc1)NC(=O)OCc1cncs1)S(=O)(=O)c1ccc2nc(N)oc2c1 [compound of formula (II)]

— patent US20120220520A1, “BIOAVAILABLE COMBINATIONS FOR HCV TREATMENT” (priority 2006, published 2012)
